The subject of this test is L1210 leukemia ip in BDF1 mice, survival T/C. Briefly: NCI In Vivo Anticancer Drug Screen. Data for tumor model L1210 Leukemia (intraperitoneal) in B6D2F1 (BDF1) mice. To be noted: endpoint: mean survival time, higher = longer survival. An outline of the steps: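 Mice bearing the transplanted tumor received compound or vehicle. Survival of the treated group was divided by that of the vehicle-treated control group to give the ratio.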

Where [1] appears, read: dose: 100.0 mg/kg/injection, schedule: Q01DX009 (ip), vehicle: Klucel (hydroxypropylcellulose) (HPC).
Where [2] appears, read: dose: 200.0 mg/kg/injection, schedule: Q01DX009 (ip), vehicle: Klucel (hydroxypropylcellulose) (HPC).
[3] abbreviates: dose: 100.0 mg/kg/injection, schedule: Q01DX001 (ip), vehicle: saline.
Where [4] appears, read: dose: 200.0 mg/kg/injection, schedule: Q01DX001 (ip), vehicle: saline.
Setting [5] is: dose: 400.0 mg/kg/injection, schedule: Q01DX001 (ip), vehicle: saline.
The mark [6] stands for this setting: dose: 100.0 mg/kg/injection, schedule: Q04DX003 (ip), vehicle: saline.
Where [7] appears, read: dose: 100.0 mg/kg/injection, schedule: Q01DX009 (ip), vehicle: saline with Tween-80.
Where [8] appears, read: dose: 100.0 mg/kg/injection, schedule: Q04DX003 (ip), vehicle: saline with Tween-80.
The mark [9] stands for this setting: dose: 200.0 mg/kg/injection, schedule: Q01DX009 (ip), vehicle: saline with Tween-80.
[10] abbreviates: dose: 200.0 mg/kg/injection, schedule: Q04DX003 (ip), vehicle: saline with Tween-80.
Setting [11] is: dose: 400.0 mg/kg/injection, schedule: Q04DX003 (ip), vehicle: saline with Tween-80.
Where [12] appears, read: dose: 50.0 mg/kg/injection, schedule: Q01DX009 (ip), vehicle: Klucel (hydroxypropylcellulose) (HPC).
Where [13] appears, read: dose: 100.0 mg/kg/injection, schedule: Q04DX003 (ip), vehicle: Klucel (hydroxypropylcellulose) (HPC).
Setting [14] is: dose: 200.0 mg/kg/injection, schedule: Q04DX003 (ip), vehicle: Klucel (hydroxypropylcellulose) (HPC).

Where “and” joins values, the source holds several entries; their conditions need not be identical. Equal entries are not always repeated. Toxic doses and inconclusive results are not listed.

In the case of `CCCCCCNC(=O)Nc1ccccc1Cl`, the T/C under setting [1] was 97 % of control; the T/C under setting [2] was 100 % of control; the T/C (dose: 400.0 mg/kg/injection, schedule: Q01DX009 (ip), vehicle: Klucel (hydroxypropylcellulose) (HPC)) was 105 % of control.

For the compound `Clc1ccccc1-c1ccc2c(Cl)ccnc2c1`, the T/C is 95 % of control under setting [3], 95 % of control under setting [4] and 91 % of control under setting [5].

For `CC1(C)Cc2nc3ccccc3nc2-c2ccccc21`, the T/C by setting is: under setting [6], 95 % of control; (dose: 200.0 mg/kg/injection, schedule: Q04DX003 (ip), vehicle: saline) 90 % of control; (dose: 400.0 mg/kg/injection, schedule: Q04DX003 (ip), vehicle: saline) 100 % of control.

As to `Cc1cc(C)c2nc(Cl)cc(C)c2c1`, the T/C is 91 % of control under setting [3], 91 % of control under setting [4] and 104 % of control under setting [5].

As for `Nc1cc(S(=O)(=O)c2ccc(O)c(N)c2)ccc1O`, the T/C by setting is: under setting [7], 105 % of control; under setting [8], 103 % of control; under setting [9], 107 % of control; under setting [10], 104 % of control; (dose: 400.0 mg/kg/injection, schedule: Q01DX009 (ip), vehicle: saline with Tween-80) 109 % of control; under setting [11], 97 % of control.

Take `CCCCCCOC(=O)Nc1ccc(S(=O)(=O)CC)cc1`: the T/C by setting is: (dose: 100.0 mg/kg/injection, schedule: Q01DX001 (ip), vehicle: carboxymethylcellulose (CMC)) 100 % of control; (dose: 200.0 mg/kg/injection, schedule: Q01DX001 (ip), vehicle: carboxymethylcellulose (CMC)) 97 % of control; (dose: 400.0 mg/kg/injection, schedule: Q01DX001 (ip), vehicle: carboxymethylcellulose (CMC)) 97 % of control.

Take `COc1c2ccccc2nc2ccccc12`: the T/C runs as follows: under setting [8], 93 % of control; under setting [10], 91 % of control; under setting [11], 95 % of control.

In the case of `O=C(O)c1c(O)c(-c2ccccc2)nc2ccccc12`, the T/C was 90 % of control (dose: 25.0 mg/kg/injection, schedule: Q01DX001 (ip), vehicle: Klucel (hydroxypropylcellulose) (HPC)); 102 % of control (dose: 50.0 mg/kg/injection, schedule: Q01DX001 (ip), vehicle: Klucel (hydroxypropylcellulose) (HPC)); 101 % of control under setting [12]; 86 % of control (dose: 100.0 mg/kg/injection, schedule: Q01DX001 (ip), vehicle: Klucel (hydroxypropylcellulose) (HPC)); 100 % of control under setting [1]; 98 % of control under setting [13]. Also, the T/C is 103 % of control under setting [2] and 100 % of control under setting [14].

As to `Nc1ccc(C(=O)OCCCN2CCCCC2)cc1`, the T/C by setting is: (dose: 12.5 mg/kg/injection, schedule: Q01DX009 (ip), vehicle: saline) 101 % of control; (dose: 25.0 mg/kg/injection, schedule: Q01DX009 (ip), vehicle: saline) 97 % of control; (dose: 50.0 mg/kg/injection, schedule: Q01DX009 (ip), vehicle: saline) 101 % of control.

As to `OC(CNc1ccccc1)CN1CCCCC1` (stereo unspecified), the T/C under setting [6] is 94 % of control.

`C=C1C=C(c2ccccc2)N(C(=O)c2ccccc2I)CCN1C(=O)c1ccccc1I`: the T/C by setting is: under setting [13], 114 % of control; under setting [14], 89 % of control; (dose: 400.0 mg/kg/injection, schedule: Q04DX003 (ip), vehicle: Klucel (hydroxypropylcellulose) (HPC)) 94 % of control.

For `NC(=S)N=Nc1ccc(O)cc1`, the T/C by setting is: (dose: 50.0 mg/kg/injection, schedule: Q01DX001 (ip), vehicle: saline) 103 % of control; under setting [3], 100 % of control; under setting [4], 100 % of control; under setting [5], 109 % of control.

Regarding `Cc1c(C)c(C)c(CCl)c(CCl)c1C`, the T/C is 97 % of control (dose: 100.0 mg/kg/injection, schedule: Q04DX002 (ip), vehicle: Klucel (hydroxypropylcellulose) (HPC)); 90 % of control (dose: 200.0 mg/kg/injection, schedule: Q04DX002 (ip), vehicle: Klucel (hydroxypropylcellulose) (HPC)); 122 % of control (dose: 400.0 mg/kg/injection, schedule: Q04DX002 (ip), vehicle: Klucel (hydroxypropylcellulose) (HPC)).

`Cn1cnc2c(SCc3ccccc3)ncnc21`: the T/C was 97 % of control (dose: 75.0 mg/kg/injection, schedule: Q01DX009 (ip), vehicle: saline with Tween-80); 104 % of control under setting [7]; 117 % of control under setting [9].

With `[N-]=[N+]=CC(=O)NCC(=O)NO`, the T/C is, setting by setting: (dose: 50.0 mg/kg/injection, schedule: Q01DX001 (ip), vehicle: water) 117 % of control; (dose: 75.0 mg/kg/injection, schedule: Q01DX009 (ip), vehicle: water) 95 % of control; (dose: 100.0 mg/kg/injection, schedule: Q01DX001 (ip), vehicle: water) 96 % of control; (dose: 100.0 mg/kg/injection, schedule: Q01DX009 (ip), vehicle: other) 100 % of control; (dose: 150.0 mg/kg/injection, schedule: Q01DX009 (ip), vehicle: water) 120 % of control; (dose: 180.0 mg/kg/injection, schedule: Q01DX001 (ip), vehicle: water) 116 % of control. For the same compound, the T/C reads like this: (dose: 200.0 mg/kg/injection, schedule: Q01DX001 (ip), vehicle: water) 102 % of control; (dose: 200.0 mg/kg/injection, schedule: Q01DX009 (ip), vehicle: other) 101 % of control; (dose: 270.0 mg/kg/injection, schedule: Q01DX001 (ip), vehicle: water) 110 % of control; (dose: 270.0 mg/kg/injection, schedule: Q01DX009 (ip), vehicle: water) 155 % of control; (dose: 300.0 mg/kg/injection, schedule: Q01DX009 (ip), vehicle: other) 111 % of control; (dose: 300.0 mg/kg/injection, schedule: Q01DX009 (ip), vehicle: water) 123 % of control. In addition, the T/C is 108 % of control and 111 % of control and 113 % of control (dose: 400.0 mg/kg/injection, schedule: Q01DX001 (ip), vehicle: water); 150 % of control (dose: 450.0 mg/kg/injection, schedule: Q01DX008 (ip), vehicle: water); 97 % of control (dose: 500.0 mg/kg/injection, schedule: Q01DX009 (ip), vehicle: other); 91 % of control (dose: 600.0 mg/kg/injection, schedule: Q01DX009 (ip), vehicle: water); 90 % of control (dose: 1600.0 mg/kg/injection, schedule: Q01DX001 (ip), vehicle: water).

Consider `CC(=O)Nc1ccccc1Sc1ccc(Br)cc1[N+](=O)[O-]`, for which the T/C is 91 % of control (dose: 75.0 mg/kg/injection, schedule: Q04DX003 (ip), vehicle: saline); 90 % of control (dose: 150.0 mg/kg/injection, schedule: Q04DX003 (ip), vehicle: saline); 87 % of control (dose: 300.0 mg/kg/injection, schedule: Q04DX003 (ip), vehicle: saline).

For `Cc1cn[nH]c1-c1ccccc1O`, the T/C (dose: 100.0 mg/kg/injection, schedule: Q04DX002 (ip), vehicle: saline with Tween-80) was 96 % of control; the T/C (dose: 200.0 mg/kg/injection, schedule: Q04DX002 (ip), vehicle: saline with Tween-80) is 100 % of control; the T/C (dose: 400.0 mg/kg/injection, schedule: Q04DX002 (ip), vehicle: saline with Tween-80) is 100 % of control.

With `CCCCOc1ccc(NC(=O)CCl)cc1`, the T/C under setting [8] is 89 % of control.

In the case of `CCc1ccc(/C(C#N)=C/c2ccc(N(C)CCC#N)cc2)cc1`, the T/C (dose: 12.5 mg/kg/injection, schedule: Q01DX009 (ip), vehicle: Klucel (hydroxypropylcellulose) (HPC)) was 95 % of control; the T/C (dose: 25.0 mg/kg/injection, schedule: Q01DX009 (ip), vehicle: Klucel (hydroxypropylcellulose) (HPC)) was 95 % of control; the T/C under setting [12] is 94 % of control.

For the compound `O=c1c(CCO)c(C2CC2)n2n1CCCC2`, the T/C is 94 % of control (dose: 9.38 mg/kg/injection, schedule: Q01DX001 (ip), vehicle: other) and 103 % of control (dose: 18.75 mg/kg/injection, schedule: Q01DX001 (ip), vehicle: other).

Take `CN(C)/C=N/c1nccs1`: the T/C under setting [3] was 104 % of control, the T/C under setting [4] was 107 % of control and the T/C under setting [5] was 107 % of control.

For the origin of these results see PubChem BioAssay AID248 (DTP/NCI, 2004).
